Laboratory results reported in article PMC6271975, “Structure-Activity Relationship Study of Sesquiterpene Lactones and Their Semi-Synthetic Amino Derivatives as Potential Antitrypanosomal Products” (Molecules, 2014).
Values joined by “and” are separate entries in the source; they are usually repeats but may differ in a detail not shown here. Equal values may be shown once. Read-outs that look alike come from different tables or passages of the source.

Experiments:
[1] = system: T. b. rhodesiense STIB 900 bloodstream forms; set-up: method as in PMID 22331812, PMID 24080104, PMID 21624443, PMID 22396915; settings: cited from earlier work; for SI (Selectivity Index): IC50 against L6 cells divided by IC50 against STIB 900 strain, previously reported compounds; for IC50: previously reported compounds included for comparison, compound 9 tested once, read-out: T. brucei STIB 900 IC50
[2] = system: rat skeletal myoblasts (L6-cells); set-up: method as in PMID 22331812, PMID 24080104, PMID 21624443, PMID 22396915; settings: cytotoxicity; previously reported compounds included for comparison; cited from earlier work
[3] = system: rat skeletal myoblasts (L6-cells); experiment: cells; assay type: cell-based; settings: for IC50: read-out: L6 cells IC50
Description: The cytotoxicity assay was performed with rat skeletal myoblasts (L6-cells) seeded in 100 μL RPMI 1640 in 96-well micro titre plates, using the Alamar Blue assay described above. After 24 h the medium was removed and replaced by 100 μL of fresh RPMI 1640 with serial threefold drug dilution. Podophyllotoxin (purity > 95%, Sigma-Aldrich) was used as a reference drug. After 70 h of incubation under a humidified 5% CO2 atmosphere, 10 μL of the Alamar blue marker (see above) was added to all wells. The plates were incubated for an additional 2 h. A Spectramax Gemini XS micro plate fluorescence reader (Molecular Devices) was used to read the plates using an excitation wavelength of 536 nm and an emission wavelength of 588 nm. The IC50s were calculated from the sigmoidal growth inhibition curves using Softmax Pro software (Molecular Devices).

[4] = system: T. b. rhodesiense STIB 900 bloodstream forms; experiment: In vitro antitrypanosomal Alamar Blue assay; assay type: cell-based, Trypanosoma brucei rhodesiense; settings: for SI (Selectivity Index): IC50 against L6 cells divided by IC50 against STIB 900 strain; for IC50: read-out: T. brucei STIB 900 IC50
Description: Evaluation of in vitro antiprotozoal activity against T. b. rhodesiense was done using the Alamar Blue assay to determine IC50s as previously described. Serial threefold dilution were prepared in 96-well micro titre plates, and 4000 T. b. rhodesiense STIB 900 bloodstream forms in 50 μL were added to each well except for the negative controls. Melarsoprol (Arsobal®, purity > 95%, Sanofi-Aventis, Meyrin, Switzerland) was used as reference drugs. […] The IC50 values were calculated from the sigmoidal growth inhibition curves using Softmax Pro software (Molecular Devices).

[5] = Rattus norvegicus, L6, 70 h, cytotoxicity, 70 h incubation, average of three independent assays
[6] = Trypanosoma brucei, 70 h, 70 h incubation, average of three independent assays
[7] = 70 h incubation, average of three independent assays
[8] = Rattus norvegicus, L6, cytotoxicity, 70 h incubation, average of three independent assays
[9] = Trypanosoma brucei, 70 h incubation, average of three independent assays

In the case of `C=C(CO)C(=O)O[C@H]1C/C(C)=C\CC/C(CO)=C\[C@H]2OC(=O)C(=C)[C@H]12` [Compound 2, Onopordopicrin], the “SI (Selectivity Index)” value [1] is given as 8.2, the IC50 [1] is given as 0.4 ± 0.01 µM and the IC50 [2] is given as 3.1 ± 1.1 µM.

In the case of `C=C1C(=O)O[C@@H]2/C=C(\CO)CC/C=C(\C)C[C@H](OC(=O)C(=C)[C@H](O)CO)[C@@H]12` [Compound 3, Cnicin], the IC50 [3, 5] is reported as 4.2 ± 0.9 µM, the “SI (Selectivity Index)” value [4] is reported as 10 and the IC50 [4, 6] is reported as 0.4 ± 0.1 µM.

In the case of `C=C[C@@]12COC(=O)C(=C)[C@@H]1[C@H]1OC(=O)C(=C)[C@@H]1[C@@H](OC(=O)C(=C)CO)C2` [Compound 4, Vernodalin], the IC50 [3, 5] is reported as 0.6 ± 0.02 µM, the “SI (Selectivity Index)” value [4] is reported as 3 and the IC50 [4, 6] is reported as 0.2 ± 0.01 µM.

In the case of `C=C1CC(O)C2C(=C)C(=O)OC2C2C(=C)C(O)CC12` (centres unmarked) [Compound 5, Deacylcynaropicrin], the “fold lower cytotoxicity as compared to 1” value ([3]; compared to compound 1) is given as “nine”, the “SI (Selectivity Index)” value [1] is given as 3.9 and the IC50 [1] is given as 4.9 ± 0.34 µM. For the same molecule, the IC50 [2] was 19 µM and 19.2 µM and the “fold lower antitrypanosomal activity as compared to 1” value ([4]; compared to compound 1) was 16 fold.

For `C=C1CC[C@H]2C(=C)CC[C@H]3C(=C)C(=O)O[C@@H]3[C@@H]12` [Compound 6, dehydrocostuslactone], the “SI (Selectivity Index)” value [1] is listed as 1.9, the IC50 [1] is listed as 4.4 ± 1.2 µM and the IC50 [2] is listed as 8.3 ± 1.9 µM.

In the case of `C=C1C(=O)O[C@@H]2/C=C(\C)CC/C=C(\C)CC[C@@H]12` [Compound 7, costunolide], the “SI (Selectivity Index)” value [1] is listed as 5.9, the IC50 [1] is listed as 1.3 ± 0.4 µM and the IC50 [2] is listed as 7.7 ± 1.3 µM.

For `C=C1C(=O)O[C@H]2[C@H]1CC/C(C)=C/CC[C@@]1(C)O[C@@H]21` [Compound 8, parthenolide], the “SI (Selectivity Index)” value [1] is listed as 6.5, the IC50 [1] is listed as 0.8 ± 0.5 µM and the IC50 [2] is listed as 5.2 ± 0.9 µM.

In the case of `C=C1C(=O)OC2C1CCC(=C)C1CC(OC(C)=O)C(=C)C12` (centres unmarked) [Compound 9, Zaluzanin D], the “SI (Selectivity Index)” value [1] is given as 1.4, the IC50 [1] is given as 10.8 µM and the IC50 [2] is given as 15.6 µM.

With `C=C1C(=O)OC2C3=C(C)C(=O)CC3C(C)(OC(C)=O)CCC12` (centres unmarked) [Compound 10] the IC50 [3, 5] was 4.3 ± 0.5 µM, the IC50 [4, 7] was 0.6 ± 0.2 µM and the “SI (Selectivity Index)” value [4] was 7.6. The IC50 [4, 6] was 0.7 µM.

For `C=C1C(=O)O[C@@H]2[C@H]1CC[C@H](C)[C@]1(CCC(=O)O1)[C@@]2(C)O` [Compound 11, Psilostachyin A], the IC50 [3, 5] was 6.9 ± 1.8 µM, the “SI (Selectivity Index)” value [4] was 1.2 and the IC50 [4, 6] was 5.8 ± 0.7 µM.

In the case of `C=C1C(=O)O[C@@H]2/C=C(\C)CC/C=C(\C)C[C@@H](OC(=O)/C(=C/CO)CO)[C@@H]12` [Compound 13, Eupatoriopicrin], the “SI (Selectivity Index)” value [1] is given as 1.3, the IC50 [1] is given as 1.2 ± 0.2 µM and the IC50 [2] is given as 1.6 ± 0.1 µM.

`C=C1C(=O)O[C@@H]2/C=C(/C)[C@@H](O)C/C=C(\C)C[C@H](OC(=O)/C(C)=C\C)[C@@H]12` [Compound 14, Nobilin] showed an IC50 ([3]; Rattus norvegicus, L6, 70 h) of 10.5 ± 0.1 µM.

In the case of `CC1=C2C3OC(=O)C(C)C3CCC(C)(O)C2CC1O` (centres unmarked) [Compound 15, 3-Hydroxyisophotosantonin], the IC50 [3, 5] is reported as 353 ± 4 µM, the “SI (Selectivity Index)” value [4] is reported as 6.4 and the IC50 [4, 6] is reported as 54.7 ± 8 µM.

In the case of `CC(=O)OC1(C)CCC2C(C)C(=O)OC2C2=C(C)C(=O)CC21` (centres unmarked) [Compound 16], the IC50 [3, 5] is reported as > 292 µM, the IC50 [4, 7] is reported as 45.7 ± 5 µM and the “SI (Selectivity Index)” value [4] is reported as >6.4. For the same molecule, the IC50 [4, 6] was 46 µM.

In the case of `CC1=C2[C@H]3OC(=O)[C@@H](C)[C@@H]3CC[C@@]2(C)C=CC1=O` [Compound 17, Santonin], the IC50 [3, 8] is reported as > 366 µM, the “SI (Selectivity Index)” value [4] is reported as >8.8 and the IC50 [4, 9] is reported as 41.5 ± 0.8 µM.

In the case of `CC1C(=O)OC2C1CCC1(C)C=CC(=O)C(C)C21` (centres unmarked) [Compound 18], the IC50 [3, 8] is reported as 34 ± 1.5 µM, the “SI (Selectivity Index)” value [4] is reported as 2.6 and the IC50 [4, 9] is reported as 12.9 ± 2.4 µM.

For `C=C1CC(O)C2C(CN(C)C)C(=O)OC2C2C(=C)C(O)CC12` (centres unmarked) [Compound 20, Deacylcynaropicrin dimethylamine adduct], the IC50 [3, 5] was 8.6 ± 1.3 µM, the “SI (Selectivity Index)” value [4] was 2.5 and the IC50 [4, 6] was 3.6 ± 1 µM.

In the case of `CCN(CC)CC1C(=O)OC2C3=C(C)C(=O)CC3C(C)(O)CCC12` (centres unmarked) [Compound 21, Deacylated diethylamine adduct], the IC50 [3, 5] is reported as 9.4 ± 2.2 µM, the “SI (Selectivity Index)” value [4] is reported as 2.2 and the IC50 [4, 6] is reported as 4.2 ± 0.8 µM.

For `CC(=O)OC1(C)CCC2C(CN3CCOCC3)C(=O)OC2C2=C(C)C(=O)CC21` (centres unmarked) [Compound 22, Morpholine adduct], the IC50 [3, 5] was 7.4 ± 0.8 µM, the “SI (Selectivity Index)” value [4] was 10.3 and the IC50 [4, 6] was 0.7 ± 0.1 µM.

For `CC1C(=O)CCC2(C)CCC3C(CN4CCOCC4)C(=O)OC3C12` (centres unmarked) [Compound 23, Morpholine adduct], the IC50 [3, 5] was 65.6 ± 9.7 µM, the “SI (Selectivity Index)” value [4] was 5.6 and the IC50 [4, 6] was 11.8 ± 2.7 µM.

For `CC1C(=O)C=CC2(C)CCC3C(CN4CCOCC4)C(=O)OC3C12` (centres unmarked) [Compound 24, Morpholine adduct], the IC50 [3, 5] was 31.3 ± 1.4 µM, the “SI (Selectivity Index)” value [4] was 13.3 and the IC50 [4, 6] was 2.4 ± 0.7 µM.

For `CC12CCC3C(CN4CCOCC4)C(=O)OC3C13C=CC(=O)C23C` (centres unmarked) [Compound 25, Morpholine adduct], the IC50 [3, 5] was 9.9 ± 1.6 µM, the “SI (Selectivity Index)” value [4] was 3.8 and the IC50 [4, 6] was 2.6 ± 0.5 µM.

For `CC1C(=O)C=CC2(C)CCC3C(CNCCc4ccc(O)cc4)C(=O)OC3C12` (centres unmarked) [Compound 26, Tyramine adduct], the IC50 [3, 5] was > 236 µM, the “SI (Selectivity Index)” value [4] was >35.0 and the IC50 [4, 6] was 6.7 ± 1.3 µM.

For `CC1C(=O)CCC2(C)CCC3C(CNCCc4ccc(O)cc4)C(=O)OC3C12` (centres unmarked) [Compound 27, Tyramine adduct], the IC50 [3, 5] was 45.6 ± 3.2 µM, the “SI (Selectivity Index)” value [4] was 4 and the IC50 [4, 6] was 13 ± 1.4 µM.

In the case of `CC1=C2C3OC(=O)C(CNCCc4ccc(O)cc4)C3CCC2(C)C=CC1=O` (centres unmarked) [Compound 28, Tyramine adduct], the IC50 [3, 5] is reported as 87.9 ± 2.2 µM, the “SI (Selectivity Index)” value [4] is reported as 6.5 and the IC50 [4, 6] is reported as 13.4 ± 1.1 µM.

In the case of `CC(=O)OC1(C)CCC2C(CNCCc3ccc(O)cc3)C(=O)OC2C2=C(C)C(=O)CC21` (centres unmarked) [Compound 29, Tyramine adduct], the IC50 [3, 5] is reported as 22.1 ± 4 µM, the “SI (Selectivity Index)” value [4] is reported as 3.3 and the IC50 [4, 6] is reported as 6.6 ± 0.7 µM.

In the case of `CC12CCC3C(CNCCc4ccc(O)cc4)C(=O)OC3C13C=CC(=O)C23C` (centres unmarked) [Compound 30, Tyramine adduct], the IC50 [3, 5] is reported as 31.8 ± 1.3 µM, the “SI (Selectivity Index)” value [4] is reported as 3.2 and the IC50 [4, 6] is reported as 9.9 ± 1.6 µM.

For `CC1=C2C3OC(=O)C(CN4CCN(c5ccccc5Cl)CC4)C3CCC2(C)C=CC1=O` (centres unmarked) [Compound 31, 1-(2-Chlorophenyl)piperazine adduct], the IC50 [3, 5] was > 20 µM, the IC50 ([3]; cytotoxicity, 70 h incubation, average of three independent assays) was 21.8 ± 2.7 µM and the IC50 [4, 7] was 7 ± 2.2 µM. The “SI (Selectivity Index)” value [4] was 3.1 and the IC50 [4, 6] was > 5 µM.

In the case of `CC1=C2C3OC(=O)C(CNCc4ccc(Cl)cc4)C3CCC2(C)C=CC1=O` (centres unmarked) [Compound 32, 4-Chlorobenzylamine adduct], the IC50 [3, 5] is reported as 34.8 ± 1.2 µM, the “SI (Selectivity Index)” value [4] is reported as 3.4 and the IC50 [4, 6] is reported as 10.6 ± 1.5 µM.

For `CC12CCC3C(CNCCc4ccc(Cl)cc4)C(=O)OC3C13C=CC(=O)C23C` (centres unmarked) [Compound 33, 2-(4-Chlorophenyl)ethylamine adduct], the IC50 [3, 5] was 27.6 ± 6.7 µM, the “SI (Selectivity Index)” value [4] was 2.7 and the IC50 [4, 6] was 10.2 ± 3.2 µM.

In the case of `CC(=O)OC1(C)CCC2C(CNCCc3ccc(Cl)cc3)C(=O)OC2C2=C(C)C(=O)CC21` (centres unmarked) [Compound 34, 2-(4-Chlorophenyl)ethylamine adduct], the IC50 [3, 5] is reported as 22.5 ± 1.6 µM, the “SI (Selectivity Index)” value [4] is reported as 4.2 and the IC50 [4, 6] is reported as 5.4 ± 1.1 µM.

For `Nc1nc(N)nc(Nc2ccc([As]3SCC(CO)S3)cc2)n1` (centres unmarked) [Melarsoprol, reference compound], the IC50 ([3]; Rattus norvegicus, L6, 70 h) was 21.7 ± 8.7 µM, the “SI (Selectivity Index)” value [4] was 2170 and the IC50 ([4]; Trypanosoma brucei, 70 h) was 0.01 ± 0.01 µM.

In the case of `COc1cc([C@@H]2c3cc4c(cc3[C@H](O)[C@H]3COC(=O)[C@H]23)OCO4)cc(OC)c1OC` [Podophyllotoxin, reference compound], the IC50 ([3]; Rattus norvegicus, L6, 70 h) is reported as 0.02 ± 0.01 µM.
